Test [1] has as its target T1, Polyadenylate-binding protein 1 (Homo sapiens, UniProt P11940). The test is described as follows: PABP1 MLLE–PAM2 interaction inhibitors, dose response, miRNA deadenylation inhibitor project, biochemical, fluorescence polarization, Cy5-PAM2 peptide, secondary (AID 602260). Type of test: functional. The note with it: read-out: IC50_Mean. (Fluorescence polarisation rises when a labelled molecule tumbles more slowly, as on binding a larger partner.)

The target in test [2] is T1, Polyadenylate-binding protein 1. The test is described as follows: PABP1 MLLE–PAM2 binding inhibitor potency, dose response, biochemical, fluorescence polarization, FITC-PAM2 peptide (AID 602259). Format: functional. As to conditions: read-out: IC50_Mean.
The nature of test [3]: growth suppression of PTEN-null colon cells, dose response, cell-based, HCT116 PTEN knockout (AID 1047).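 Further: HCT116 colon tumor cells with PTEN knocked out; cells exposed to compound for 60 hours before readout; potency for loss of cell viability measured by luminescence.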 Format: functional.
Test [4] can be described thus: growth suppression of beta-catenin-knockout colon cells, dose response, cell-based, HCT116, human colon tumor (AID 1045).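 Further: HCT116 colon tumor cells with beta catenin knocked out; cells exposed to compound for 60 hours.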 Type of test: functional.
The target in a further test is T2, Cytochrome P450 1A2 (Homo sapiens, UniProt P05177).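 Further: PubChem cytochrome P450 panel assay, CYP1A2 panel member.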
T2 sequence (P05177 whole entry): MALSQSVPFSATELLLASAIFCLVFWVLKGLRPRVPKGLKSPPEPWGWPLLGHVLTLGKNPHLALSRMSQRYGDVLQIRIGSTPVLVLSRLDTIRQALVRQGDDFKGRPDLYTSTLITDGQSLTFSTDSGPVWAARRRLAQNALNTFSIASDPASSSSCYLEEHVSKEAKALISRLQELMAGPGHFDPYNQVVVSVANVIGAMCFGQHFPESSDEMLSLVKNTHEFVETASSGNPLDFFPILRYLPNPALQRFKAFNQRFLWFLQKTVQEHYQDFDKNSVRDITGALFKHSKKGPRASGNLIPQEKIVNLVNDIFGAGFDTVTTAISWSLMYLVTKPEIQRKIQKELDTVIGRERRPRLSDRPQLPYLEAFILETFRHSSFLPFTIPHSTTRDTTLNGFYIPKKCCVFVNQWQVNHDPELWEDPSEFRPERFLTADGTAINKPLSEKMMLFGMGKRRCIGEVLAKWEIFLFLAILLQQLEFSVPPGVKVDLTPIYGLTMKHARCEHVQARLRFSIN

The target in another test is Cytochrome P450 3A4 (Homo sapiens, UniProt P08684).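 Further: CYP3A4 tested as one member of a cytochrome P450 panel screen.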
A further test deals with Cytochrome P450 2C9 (Homo sapiens, UniProt P11712).
Test [5] relates to Streptococcus sp. 'group A'. Description: growth inhibition of control SK(-) GAS strain, dose response, counter-screen for streptokinase expression inhibitor project, luminescence, kanamycin, BacTiterGlo, confirmation (AID 1900). Format: functional, organism-based. (The purpose of a counterscreen is to sort out artefacts and off-target activity.)
For a further test, the target named is T3, Streptokinase A (Streptococcus pyogenes serotype M1, UniProt P10520).
T3 sequence (P10520 whole entry): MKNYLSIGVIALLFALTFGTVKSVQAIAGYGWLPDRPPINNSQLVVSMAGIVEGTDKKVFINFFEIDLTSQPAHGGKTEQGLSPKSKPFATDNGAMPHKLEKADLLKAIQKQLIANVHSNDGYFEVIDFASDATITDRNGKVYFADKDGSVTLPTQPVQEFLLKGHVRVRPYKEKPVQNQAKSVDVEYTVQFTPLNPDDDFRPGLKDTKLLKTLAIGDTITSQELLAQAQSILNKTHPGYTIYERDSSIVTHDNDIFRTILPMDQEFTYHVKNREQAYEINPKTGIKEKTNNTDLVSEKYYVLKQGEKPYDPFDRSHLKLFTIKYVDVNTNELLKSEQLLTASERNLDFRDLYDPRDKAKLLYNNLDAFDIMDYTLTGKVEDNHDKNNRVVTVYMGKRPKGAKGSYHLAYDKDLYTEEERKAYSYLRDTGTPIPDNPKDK
Description: S. pyogenes streptokinase expression inhibitors, potency, dose response, plasminogen activation absorbance, OD405 (AID 1914).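 Further: secreted streptokinase activity via plasminogen activation per viability signal from cell pellet.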 Type of test: functional, Streptococcus pyogenes M1 GAS.

A further test deals with Streptococcus. The test is described as follows: Group A Streptococcus viability loss, dose response, counter-screen for streptokinase expression inhibitor project, luminescence, BacTiterGlo (AID 1915).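 Further: potency for reduction of bacterial viability or growth.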 Type of test: functional, organism-based.
Test [6] can be described thus: Luminescence Cell-Based Dose Retest to Confirm Inhibitors of Cancer Stem Cells. [Related pubchem assays (depositor defined):AID2717, AID2721]. Type of test: functional. The note with it: Homo sapiens.
A short description of test [7]: Luminescence Cell-Based Dose Confirmation HTS to Identify Activators of 5'UTR Stem-Loop Driven Alpha-Synuclein mRNA Translation in H4 Neuroglioblastoma Cells. [Related pubchem assays: 1829 (Project Summary), 1814 (Primary HTS)]. Type of test: functional.
Test [8] in a line: Luminescence Cell-Based Dose Response HTS to Identify Activators of Luciferase Translation or Activity in H4 […] Cells. [Related pubchem assays: 1829 (Project Summary), 1814 (Primary HTS)]. Type of test: functional.
Another test concerns H4. The test is described as follows: Luminescence Cell-Based Dose Response HTS to Identify Activators of 5'UTR Stem-Loop Driven Prion Protein mRNA Translation in H4 Neuroglioblastoma Cells. [Related pubchem assays: 1829 (Project Summary), 1814 (Primary HTS)]. Format: functional. The note with it: Homo sapiens.
Test [9] concerns the target T4, Corticotropin-releasing factor receptor 2/Corticotropin-releasing factor-binding protein (Homo sapiens, UniProt P24387+Q13324).
T4 sequence (Q13324 whole entry): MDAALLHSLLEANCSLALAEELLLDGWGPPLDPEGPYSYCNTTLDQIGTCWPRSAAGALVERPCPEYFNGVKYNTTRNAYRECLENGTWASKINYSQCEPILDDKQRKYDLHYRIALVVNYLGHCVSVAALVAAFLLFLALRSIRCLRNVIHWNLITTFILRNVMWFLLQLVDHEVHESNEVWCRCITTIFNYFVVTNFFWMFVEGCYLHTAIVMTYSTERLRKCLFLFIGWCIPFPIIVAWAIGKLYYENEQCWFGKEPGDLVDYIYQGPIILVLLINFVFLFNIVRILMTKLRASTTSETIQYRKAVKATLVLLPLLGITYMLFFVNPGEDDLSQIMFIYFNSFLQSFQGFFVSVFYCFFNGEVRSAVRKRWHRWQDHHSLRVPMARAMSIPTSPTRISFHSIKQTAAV
T4 sequence (P24387 whole entry): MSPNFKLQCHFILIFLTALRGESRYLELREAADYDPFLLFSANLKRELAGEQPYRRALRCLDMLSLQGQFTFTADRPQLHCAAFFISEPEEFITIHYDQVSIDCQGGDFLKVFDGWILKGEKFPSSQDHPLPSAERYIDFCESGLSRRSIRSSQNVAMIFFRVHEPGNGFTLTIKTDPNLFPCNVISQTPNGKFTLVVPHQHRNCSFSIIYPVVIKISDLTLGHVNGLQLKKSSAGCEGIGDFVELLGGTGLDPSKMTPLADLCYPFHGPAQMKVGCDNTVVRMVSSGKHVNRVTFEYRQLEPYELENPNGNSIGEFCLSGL
Description: Dose Response confirmation of uHTS hits for small molecule antagonists of the CRF-binding protein and CRF-R2 receptor complex. The note with it: read-out: IC50_Mean. Type of test: functional.

Test [10] has as its target T4, Corticotropin-releasing factor receptor 2/Corticotropin-releasing factor-binding protein. Description: activators of CRF receptor 2 with binding protein – uHTS hits, confirmation (AID 602473). The note with it: read-out: EC50_Mean. Type of test: functional.

One may read the AC50 as the concentration giving half of the maximal activity seen.

Active and inactive are the calls of the source.

T1 sequence (P11940 whole entry): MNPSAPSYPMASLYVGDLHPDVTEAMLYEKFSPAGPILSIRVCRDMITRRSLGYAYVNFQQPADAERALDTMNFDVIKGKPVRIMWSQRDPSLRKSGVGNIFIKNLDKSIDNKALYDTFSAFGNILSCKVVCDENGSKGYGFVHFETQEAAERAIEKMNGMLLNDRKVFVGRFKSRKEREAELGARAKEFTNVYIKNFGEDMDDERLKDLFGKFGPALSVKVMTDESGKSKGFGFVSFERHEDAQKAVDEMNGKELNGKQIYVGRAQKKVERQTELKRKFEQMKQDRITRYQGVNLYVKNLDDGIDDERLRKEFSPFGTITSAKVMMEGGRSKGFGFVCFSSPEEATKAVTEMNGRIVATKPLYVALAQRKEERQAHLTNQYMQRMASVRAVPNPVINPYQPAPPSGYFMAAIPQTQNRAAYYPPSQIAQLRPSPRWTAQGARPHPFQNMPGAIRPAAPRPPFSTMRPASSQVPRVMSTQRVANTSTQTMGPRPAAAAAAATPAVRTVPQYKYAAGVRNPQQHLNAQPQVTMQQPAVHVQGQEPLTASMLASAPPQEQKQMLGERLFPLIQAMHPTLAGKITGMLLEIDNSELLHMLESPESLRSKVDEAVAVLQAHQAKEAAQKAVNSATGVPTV
Sequence of Cytochrome P450 3A4 (P08684 whole entry): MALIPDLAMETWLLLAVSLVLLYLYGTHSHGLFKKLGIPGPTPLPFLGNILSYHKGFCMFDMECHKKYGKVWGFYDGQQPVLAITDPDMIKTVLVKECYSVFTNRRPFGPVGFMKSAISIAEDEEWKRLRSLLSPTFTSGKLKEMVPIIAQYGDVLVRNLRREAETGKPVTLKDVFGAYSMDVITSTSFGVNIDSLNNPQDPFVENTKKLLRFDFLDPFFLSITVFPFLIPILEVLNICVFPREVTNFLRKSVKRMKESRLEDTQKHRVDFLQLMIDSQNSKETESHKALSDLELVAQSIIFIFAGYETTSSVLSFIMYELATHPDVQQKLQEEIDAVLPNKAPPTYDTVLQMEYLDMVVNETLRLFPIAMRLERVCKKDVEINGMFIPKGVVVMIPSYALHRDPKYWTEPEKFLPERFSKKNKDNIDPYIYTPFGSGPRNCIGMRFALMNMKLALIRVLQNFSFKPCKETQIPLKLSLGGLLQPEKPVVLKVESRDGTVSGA
Sequence of Cytochrome P450 2C9 (P11712 whole entry): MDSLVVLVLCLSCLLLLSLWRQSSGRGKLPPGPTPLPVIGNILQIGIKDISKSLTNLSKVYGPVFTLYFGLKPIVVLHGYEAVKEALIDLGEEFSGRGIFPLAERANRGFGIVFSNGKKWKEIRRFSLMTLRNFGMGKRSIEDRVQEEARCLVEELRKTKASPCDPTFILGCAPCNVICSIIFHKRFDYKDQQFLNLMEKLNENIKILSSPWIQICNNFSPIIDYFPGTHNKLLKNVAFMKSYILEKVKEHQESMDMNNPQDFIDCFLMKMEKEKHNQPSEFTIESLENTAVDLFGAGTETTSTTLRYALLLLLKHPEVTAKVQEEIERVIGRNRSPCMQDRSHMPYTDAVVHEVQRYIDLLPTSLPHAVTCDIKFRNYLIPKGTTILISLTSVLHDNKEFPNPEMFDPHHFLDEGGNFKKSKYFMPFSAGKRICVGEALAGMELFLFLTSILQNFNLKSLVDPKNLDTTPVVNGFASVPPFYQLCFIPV

Consider `Cc1cccc2nc(CSCc3ccco3)cn12`, for which the IC50 in test [1] and in [2] was > 66 µM (inactive) each time.
With `CCOc1ccc(CN2CCN(CC(O)Cn3c4ccccc4c4ccccc43)CC2)cc1` (centres undefined), the results for the EC50 in [3] and in test [4] were 9.94 µM (active) and 9.01 µM (active), respectively.
Take `O=C1CSC(=S)N1c1cccnc1`: the IC50 in test [1] and in test [2] was > 66 µM (inactive) throughout.
For `Cn1cc([N+](=O)[O-])c(C(=O)Nc2ccc(Br)cn2)n1`, the EC50 in test [3] was 5.55 µM (active); in [4], 4.91 µM (active).
As for `COc1c(F)c(F)c(-c2csc(N)n2)c(F)c1F`, the IC50 in test [1] and in [2] was > 66 µM (inactive) throughout.
Regarding `CCOC(=O)N1CCN(C(=O)CSCc2nc(-c3ccccc3F)oc2C)CC1`, the IC50 in [1] and in [2] was > 66 µM (inactive) throughout. Besides, the concentration at half-maximal activity (AC50) on Cytochrome P450 1A2 is 12.6 µM (inconclusive); on Cytochrome P450 3A4 it was 25.1 µM (inconclusive); on Cytochrome P450 2C9 it was 14.1 µM (inconclusive).
Consider `COc1ccc(Cn2c(-c3ccco3)nc3oc4ccccc4c(=O)c3c2=O)cc1`, for which the EC50 in test [5] is 12.1 µM (active); at Streptokinase A it was > 150 µM (not active); with Streptococcus, 86.5 µM (active).
Take `O=C(Cc1ccccc1)Nc1cccc(NC(=O)c2ccccc2)c1`: in test [6], the AC50 was 7.49 µM (active).
Consider `O=C(NC(=S)Nc1cccnc1)c1cccc(Cl)c1`, for which the IC50 in [1] and in test [2] was > 66 µM (inactive) each time.
For `CC(=O)Nc1ccc(-c2csc(NC(=O)Cc3cccc(F)c3)n2)cc1`, in test [6], the AC50 is 1.29 µM (active).
Regarding `CCCC(=O)NC(Nc1cc(C(F)(F)F)ccc1Cl)C(Cl)(Cl)Cl` (centres undefined), the EC50 in [3] is 25.5 µM (active); in [4] it was 33.6 µM (active).
For `CCc1noc(C)c1C(=O)OCC(=O)NC(=O)c1ccccc1`, the EC50 (in test [5]; on Streptokinase A; in the test on Streptococcus) was > 150 µM (not active) in each case.
For the compound `CCOc1ccccc1NC(=O)CSc1nnc(-c2cccnc2)o1`, the IC50 in test [1] and in test [2] was > 66 µM (inactive) each time.
For `CCN(CC)CCNC(=O)c1ccc2c(=O)n(C3CCCC3)c(=S)[nH]c2c1`, the EC50 in [3] is 17.2 µM (active); in test [4], 14.1 µM (active).
`O=C(NC(=S)Nc1ccccc1N1CCCCC1)c1ccco1`: the IC50 in test [1] and in [2] was > 66 µM (inactive) throughout.
`COc1ccc(C(C)=O)cc1COc1cc(C)c(Cl)c(C)c1`: the EC50 (in test [5]; at Streptokinase A; with Streptococcus) was > 150 µM (not active) each time.
For `COc1ccc(C2=NOC(CNC(N)=S)C2)cc1` (centres undefined), the EC50 on Streptokinase A is recorded as > 150 µM (not active).
As for `COc1ccc2c(c1OC)C(=O)N1C2SC[C@H]1C(=O)NC1CCCC1` (some centres undefined), the IC50 in [1] and in test [2] was > 66 µM (inactive) in each case.
Turning to `CC(=O)c1cccc(S(=O)(=O)N2CCN(CCOc3ccccc3)CC2)c1`, the IC50 in test [1] and in test [2] was > 66 µM (inactive) in each case.
For `Cc1cccc(-c2oc3ccccc3c2-c2ccc3c(c2)OCO3)c1`, the EC50 in test [5] was 2.25 µM (active); on Streptokinase A, 5.16 µM (active); in the test with Streptococcus it was > 150 µM (not active).
As to `COc1c(Cl)cnn(-c2ccc(C)cc2)c1=O`, the results for the EC50 in [3] and in test [4] were 15.5 µM (active) and 11.5 µM (active), respectively.
Regarding `N#Cc1nc(-c2ccc(OCc3ccccc3Cl)cc2)oc1NCCCn1ccnc1`, the EC50 is 4.38 µM (active) in test [5], 16.6 µM (active) on Streptokinase A and > 150 µM (not active) in the test with Streptococcus.
The like results for `COC(=O)c1cc(-c2ccc(OC)cc2F)nc2nc(SC)nc(O)c12` were, in that order, 8.08 µM (active), > 150 µM (not active) and 23.3 µM (active).
As for `CC1=NC2=C(C(=O)CCC2)C(c2cc3c(cc2Br)OCO3)/C1=C(\O)OCCOC(C)C` (centres undefined), the IC50 in test [1] and in test [2] was > 66 µM (inactive) throughout.
As for `O=C1c2ccccc2C2=Nc3ccccc3SC(c3ccccc3F)C12` (centres undefined), the values for the EC50 (in test [5]; on Streptokinase A; with Streptococcus) were 8.24 µM (active), 4.91 µM (active) and 12.7 µM (active), respectively. For the same compound, the AC50 at Cytochrome P450 3A4 was 0.355 µM (inconclusive).
Take `C/C(CC(=O)Nc1cc(C)cc(C)c1)=N\NC(=O)c1ccccn1`: the values for the EC50 (in [7]; in test [8]; with H4) were > 120 µM (not active), > 120 µM (not active) and 42.2 µM (active), respectively.
With `CCOc1ccc(C(=O)c2cccs2)cc1`, the EC50 is 55 µM (active) in test [7], 13.5 µM (active) in test [8], 11.4 µM (active) in the test on H4 and > 53 µM (inactive) in test [10]. Also, in [9], the IC50 is > 47.1 µM (inactive).
Turning to `CS(=O)(=O)c1ccc([C@@H](O)[C@@H](CO)NC(=O)C(Cl)Cl)cc1` [THIAMPHENICOL], the EC50 in test [5] was 1.89 µM (active); at Streptokinase A, 4.02 µM (active); with Streptococcus, 4.55 µM (active).
For `Cc1ccc(S(=O)(=O)CNC(=S)c2ccc3ccccc3c2)cc1`, the EC50 at Streptokinase A is given as > 150 µM (not active).
Take `CCCn1c(NC(=O)c2cccc(C)c2C)nc2ccccc21`: the EC50 is 7.43 µM (active) in test [5], > 150 µM (not active) at Streptokinase A and > 150 µM (not active) in the test with Streptococcus.
`Clc1ccccc1CSc1ncn(-c2ccccc2)n1`: the EC50 is 0.191 µM (active) in test [7], 0.42 µM (active) in test [8] and 36.9 µM (active) in the test on H4.
As to `COc1ccc(S(=O)(=O)NCC2CCCN(Cc3ccc(OC)cc3F)C2)cc1` (centres undefined), the EC50 in test [5] was 114 µM (active); at Streptokinase A, > 150 µM (not active); with Streptococcus, > 150 µM (not active).

Values taken from ChEMBL document CHEMBL1201862, “PubChem BioAssay data set” (2004).
